Kd data for eleven molecules are collected here from ChEMBL document CHEMBL3991601, “The target landscape of clinical kinase drugs” (Science, 2017).

The structures appear in SMILES notation. Active and inactive are the calls of the source.

Assay [1] concerns the target Choline-phosphate cytidylyltransferase A (Homo sapiens, UniProt P49585).
The target in assay [2] is G protein-coupled receptor kinase 6 (Homo sapiens, UniProt P43250).
Assay [3] addresses Protein kinase C theta type (Homo sapiens, UniProt Q04759).
The target of assay [4] is High affinity nerve growth factor receptor (Homo sapiens, UniProt P04629).
The target in assay [5] is T1, Ephrin type-A receptor 1 (Homo sapiens, UniProt P21709).
T1 sequence (P21709 whole entry): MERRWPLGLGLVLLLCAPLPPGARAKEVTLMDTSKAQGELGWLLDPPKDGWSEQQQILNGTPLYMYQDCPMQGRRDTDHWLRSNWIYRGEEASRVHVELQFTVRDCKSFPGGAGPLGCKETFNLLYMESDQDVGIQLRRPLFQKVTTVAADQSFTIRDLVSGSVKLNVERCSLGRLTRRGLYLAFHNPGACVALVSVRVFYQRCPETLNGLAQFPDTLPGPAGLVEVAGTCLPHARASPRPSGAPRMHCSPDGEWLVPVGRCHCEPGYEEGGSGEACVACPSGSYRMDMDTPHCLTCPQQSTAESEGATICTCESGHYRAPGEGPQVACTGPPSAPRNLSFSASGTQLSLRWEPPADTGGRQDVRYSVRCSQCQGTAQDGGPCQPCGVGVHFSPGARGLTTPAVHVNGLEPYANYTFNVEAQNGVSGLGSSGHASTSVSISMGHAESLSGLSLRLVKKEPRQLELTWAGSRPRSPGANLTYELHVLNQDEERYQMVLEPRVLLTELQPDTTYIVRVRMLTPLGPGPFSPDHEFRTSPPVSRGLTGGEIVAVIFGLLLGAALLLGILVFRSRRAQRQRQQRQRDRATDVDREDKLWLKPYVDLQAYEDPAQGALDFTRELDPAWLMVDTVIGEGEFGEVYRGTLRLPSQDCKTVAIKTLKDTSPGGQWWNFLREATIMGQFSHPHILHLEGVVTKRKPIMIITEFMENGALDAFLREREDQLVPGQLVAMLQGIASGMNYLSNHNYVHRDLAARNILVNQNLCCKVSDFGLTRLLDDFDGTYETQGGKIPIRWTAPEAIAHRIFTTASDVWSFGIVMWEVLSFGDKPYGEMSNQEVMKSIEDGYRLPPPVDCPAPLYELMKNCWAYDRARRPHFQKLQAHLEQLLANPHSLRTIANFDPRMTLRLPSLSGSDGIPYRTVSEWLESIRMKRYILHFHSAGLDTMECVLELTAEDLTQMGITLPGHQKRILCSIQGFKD

For assay [6], the target named is Hepatocyte growth factor receptor (Homo sapiens, UniProt P08581).
Assay [7] concerns the target Phosphatidylethanolamine-binding protein 1 (Homo sapiens, UniProt P30086).
Assay [8] deals with T2, Long-chain-fatty-acid--CoA ligase 5 (Homo sapiens, UniProt Q9ULC5).
T2 sequence (Q9ULC5 whole entry): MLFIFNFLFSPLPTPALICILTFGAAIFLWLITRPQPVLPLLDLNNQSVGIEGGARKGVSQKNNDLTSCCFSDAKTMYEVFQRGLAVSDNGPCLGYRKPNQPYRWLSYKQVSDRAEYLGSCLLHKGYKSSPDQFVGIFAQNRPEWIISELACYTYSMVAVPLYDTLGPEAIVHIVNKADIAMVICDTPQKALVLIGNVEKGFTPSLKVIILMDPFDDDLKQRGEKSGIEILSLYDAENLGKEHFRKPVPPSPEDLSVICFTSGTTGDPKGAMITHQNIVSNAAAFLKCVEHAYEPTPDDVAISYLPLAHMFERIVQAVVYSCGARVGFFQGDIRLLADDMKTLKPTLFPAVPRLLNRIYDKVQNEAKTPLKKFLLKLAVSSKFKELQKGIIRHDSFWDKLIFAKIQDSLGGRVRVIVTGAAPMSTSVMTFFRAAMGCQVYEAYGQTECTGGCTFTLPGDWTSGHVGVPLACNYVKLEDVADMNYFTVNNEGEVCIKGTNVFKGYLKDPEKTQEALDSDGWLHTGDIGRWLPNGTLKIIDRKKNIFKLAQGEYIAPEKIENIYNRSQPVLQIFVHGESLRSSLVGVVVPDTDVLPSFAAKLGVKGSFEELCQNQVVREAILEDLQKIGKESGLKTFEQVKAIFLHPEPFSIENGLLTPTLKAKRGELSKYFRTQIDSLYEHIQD

For assay [9], the target named is Dual specificity testis-specific protein kinase 1 (Homo sapiens, UniProt Q15569).
Assay [10] concerns the target Serine/threonine-protein kinase 24 (Homo sapiens, UniProt Q9Y6E0).
The target of assay [11] is Dual specificity protein kinase CLK3 (Homo sapiens, UniProt P49761). Format: subcellular, K-562, COLO 205, SK-N-BE(2) and MV-4-11, Cell lysate. The settings on record: read-out: Kd apparent.
The target in assay [12] is Serine/threonine-protein kinase PLK1 (Homo sapiens, UniProt P53350).
Assay [13] concerns the target Cell division cycle 7-related protein kinase (Homo sapiens, UniProt O00311).
The target of assay [14] is Serine/threonine-protein kinase pim-2 (Homo sapiens, UniProt Q9P1W9).
Note: in the data inactive means no Kd found up to 30 µM.

Sequence of Cell division cycle 7-related protein kinase (O00311 whole entry): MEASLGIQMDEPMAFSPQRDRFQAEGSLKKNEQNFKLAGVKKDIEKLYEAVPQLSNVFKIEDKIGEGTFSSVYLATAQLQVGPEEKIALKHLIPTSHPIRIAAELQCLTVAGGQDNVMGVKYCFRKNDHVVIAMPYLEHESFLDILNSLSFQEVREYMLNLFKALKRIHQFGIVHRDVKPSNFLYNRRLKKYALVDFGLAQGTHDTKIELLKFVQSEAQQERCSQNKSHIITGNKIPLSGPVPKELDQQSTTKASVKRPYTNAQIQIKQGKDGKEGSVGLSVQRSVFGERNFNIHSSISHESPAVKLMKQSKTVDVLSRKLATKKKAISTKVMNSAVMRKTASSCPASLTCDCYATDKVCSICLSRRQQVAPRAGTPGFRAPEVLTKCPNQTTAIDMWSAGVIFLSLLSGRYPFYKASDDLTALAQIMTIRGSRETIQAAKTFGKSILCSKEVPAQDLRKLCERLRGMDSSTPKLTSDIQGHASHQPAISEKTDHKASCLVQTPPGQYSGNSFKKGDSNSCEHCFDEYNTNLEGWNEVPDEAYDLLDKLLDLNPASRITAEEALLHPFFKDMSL
Sequence of Dual specificity protein kinase CLK3 (P49761 whole entry): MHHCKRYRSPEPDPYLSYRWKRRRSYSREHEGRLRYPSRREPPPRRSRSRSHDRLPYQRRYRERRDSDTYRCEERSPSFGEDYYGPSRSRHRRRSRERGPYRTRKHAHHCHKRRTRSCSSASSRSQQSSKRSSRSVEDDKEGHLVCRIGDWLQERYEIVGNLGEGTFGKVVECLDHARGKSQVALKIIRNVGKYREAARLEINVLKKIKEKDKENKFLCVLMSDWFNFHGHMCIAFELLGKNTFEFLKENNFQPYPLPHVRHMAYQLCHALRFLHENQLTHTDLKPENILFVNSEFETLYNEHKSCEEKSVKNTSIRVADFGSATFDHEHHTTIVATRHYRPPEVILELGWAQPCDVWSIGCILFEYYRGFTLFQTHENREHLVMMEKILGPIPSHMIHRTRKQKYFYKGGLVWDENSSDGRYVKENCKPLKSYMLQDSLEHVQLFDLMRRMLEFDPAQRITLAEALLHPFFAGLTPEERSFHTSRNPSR
Sequence of Serine/threonine-protein kinase PLK1 (P53350 whole entry): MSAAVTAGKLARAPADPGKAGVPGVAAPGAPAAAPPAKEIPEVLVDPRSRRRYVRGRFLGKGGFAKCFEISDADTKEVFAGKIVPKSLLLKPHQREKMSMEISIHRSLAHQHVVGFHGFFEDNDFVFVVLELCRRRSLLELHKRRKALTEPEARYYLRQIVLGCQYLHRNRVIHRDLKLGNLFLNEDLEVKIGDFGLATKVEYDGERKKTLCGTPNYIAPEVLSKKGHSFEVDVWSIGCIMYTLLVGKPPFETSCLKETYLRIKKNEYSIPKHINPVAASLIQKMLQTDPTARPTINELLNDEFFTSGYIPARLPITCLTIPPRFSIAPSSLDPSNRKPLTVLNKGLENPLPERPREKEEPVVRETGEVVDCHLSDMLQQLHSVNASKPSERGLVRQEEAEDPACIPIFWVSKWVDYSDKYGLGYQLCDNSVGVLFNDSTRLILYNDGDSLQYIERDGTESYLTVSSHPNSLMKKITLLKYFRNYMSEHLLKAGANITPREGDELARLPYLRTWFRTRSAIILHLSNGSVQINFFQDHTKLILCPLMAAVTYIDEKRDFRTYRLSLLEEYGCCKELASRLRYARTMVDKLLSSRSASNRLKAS
Sequence of Hepatocyte growth factor receptor (P08581 whole entry): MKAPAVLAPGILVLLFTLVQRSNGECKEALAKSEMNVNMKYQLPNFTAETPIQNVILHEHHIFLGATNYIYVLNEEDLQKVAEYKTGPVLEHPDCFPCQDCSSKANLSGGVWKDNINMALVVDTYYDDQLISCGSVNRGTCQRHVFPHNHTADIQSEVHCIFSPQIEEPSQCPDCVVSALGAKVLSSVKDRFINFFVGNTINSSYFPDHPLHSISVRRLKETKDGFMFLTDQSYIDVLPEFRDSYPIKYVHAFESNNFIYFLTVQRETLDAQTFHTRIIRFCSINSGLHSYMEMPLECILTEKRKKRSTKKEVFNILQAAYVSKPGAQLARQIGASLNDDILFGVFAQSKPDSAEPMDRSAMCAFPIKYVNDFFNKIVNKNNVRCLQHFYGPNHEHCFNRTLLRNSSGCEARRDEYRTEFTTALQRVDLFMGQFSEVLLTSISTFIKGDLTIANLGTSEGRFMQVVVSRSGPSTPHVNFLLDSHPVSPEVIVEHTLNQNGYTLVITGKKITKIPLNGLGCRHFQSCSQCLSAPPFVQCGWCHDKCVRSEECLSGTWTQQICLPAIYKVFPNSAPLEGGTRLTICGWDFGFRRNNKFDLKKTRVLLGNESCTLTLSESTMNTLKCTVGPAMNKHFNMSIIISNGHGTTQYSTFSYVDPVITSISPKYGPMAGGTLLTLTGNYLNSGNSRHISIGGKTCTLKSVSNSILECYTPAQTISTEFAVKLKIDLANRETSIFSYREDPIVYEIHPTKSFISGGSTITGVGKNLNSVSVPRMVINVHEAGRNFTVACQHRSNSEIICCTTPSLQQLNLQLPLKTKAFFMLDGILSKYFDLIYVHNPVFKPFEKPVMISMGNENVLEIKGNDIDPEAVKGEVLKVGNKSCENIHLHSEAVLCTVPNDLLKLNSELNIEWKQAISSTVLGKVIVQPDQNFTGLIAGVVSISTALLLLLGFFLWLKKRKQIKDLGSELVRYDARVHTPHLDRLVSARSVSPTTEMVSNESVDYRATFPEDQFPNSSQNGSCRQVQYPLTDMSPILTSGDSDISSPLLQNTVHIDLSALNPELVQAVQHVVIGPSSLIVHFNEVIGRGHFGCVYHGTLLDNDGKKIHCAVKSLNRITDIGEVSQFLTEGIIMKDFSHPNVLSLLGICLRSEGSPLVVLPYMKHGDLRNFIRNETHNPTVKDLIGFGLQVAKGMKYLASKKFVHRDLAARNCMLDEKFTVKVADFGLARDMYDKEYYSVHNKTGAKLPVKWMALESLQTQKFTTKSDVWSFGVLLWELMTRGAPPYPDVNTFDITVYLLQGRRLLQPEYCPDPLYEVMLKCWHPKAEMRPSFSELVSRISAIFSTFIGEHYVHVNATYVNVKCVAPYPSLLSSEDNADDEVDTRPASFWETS
Sequence of Phosphatidylethanolamine-binding protein 1 (P30086 whole entry): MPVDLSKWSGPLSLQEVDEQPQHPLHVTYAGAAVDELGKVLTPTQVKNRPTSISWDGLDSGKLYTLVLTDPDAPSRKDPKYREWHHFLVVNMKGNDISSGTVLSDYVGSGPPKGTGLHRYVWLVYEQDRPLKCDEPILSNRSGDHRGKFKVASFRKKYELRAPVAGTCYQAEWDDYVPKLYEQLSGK
Sequence of Choline-phosphate cytidylyltransferase A (P49585 whole entry): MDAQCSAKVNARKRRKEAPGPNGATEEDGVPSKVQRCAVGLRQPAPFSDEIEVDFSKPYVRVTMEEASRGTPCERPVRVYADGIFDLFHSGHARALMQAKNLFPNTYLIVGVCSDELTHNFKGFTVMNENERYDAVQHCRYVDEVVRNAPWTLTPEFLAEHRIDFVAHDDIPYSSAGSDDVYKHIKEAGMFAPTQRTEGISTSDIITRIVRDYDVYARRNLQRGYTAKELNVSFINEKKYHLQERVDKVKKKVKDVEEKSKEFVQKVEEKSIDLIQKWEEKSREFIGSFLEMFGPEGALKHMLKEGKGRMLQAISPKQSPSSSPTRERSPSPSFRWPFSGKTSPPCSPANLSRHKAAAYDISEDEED
Sequence of G protein-coupled receptor kinase 6 (P43250 whole entry): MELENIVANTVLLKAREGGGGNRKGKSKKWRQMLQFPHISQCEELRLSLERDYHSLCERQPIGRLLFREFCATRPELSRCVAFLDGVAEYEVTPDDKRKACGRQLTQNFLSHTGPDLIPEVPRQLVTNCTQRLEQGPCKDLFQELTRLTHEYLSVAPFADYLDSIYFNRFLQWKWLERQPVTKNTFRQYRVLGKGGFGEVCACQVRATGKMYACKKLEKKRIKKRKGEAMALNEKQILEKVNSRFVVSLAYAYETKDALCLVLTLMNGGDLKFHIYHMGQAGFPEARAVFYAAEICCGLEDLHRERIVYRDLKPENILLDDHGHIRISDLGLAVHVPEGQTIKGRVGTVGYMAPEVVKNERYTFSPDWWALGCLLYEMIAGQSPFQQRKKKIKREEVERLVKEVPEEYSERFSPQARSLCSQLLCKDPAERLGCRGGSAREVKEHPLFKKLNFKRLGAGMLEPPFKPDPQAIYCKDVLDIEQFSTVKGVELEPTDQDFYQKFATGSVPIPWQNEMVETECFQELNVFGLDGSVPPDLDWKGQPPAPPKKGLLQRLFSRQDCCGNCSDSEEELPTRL
Sequence of High affinity nerve growth factor receptor (P04629 whole entry): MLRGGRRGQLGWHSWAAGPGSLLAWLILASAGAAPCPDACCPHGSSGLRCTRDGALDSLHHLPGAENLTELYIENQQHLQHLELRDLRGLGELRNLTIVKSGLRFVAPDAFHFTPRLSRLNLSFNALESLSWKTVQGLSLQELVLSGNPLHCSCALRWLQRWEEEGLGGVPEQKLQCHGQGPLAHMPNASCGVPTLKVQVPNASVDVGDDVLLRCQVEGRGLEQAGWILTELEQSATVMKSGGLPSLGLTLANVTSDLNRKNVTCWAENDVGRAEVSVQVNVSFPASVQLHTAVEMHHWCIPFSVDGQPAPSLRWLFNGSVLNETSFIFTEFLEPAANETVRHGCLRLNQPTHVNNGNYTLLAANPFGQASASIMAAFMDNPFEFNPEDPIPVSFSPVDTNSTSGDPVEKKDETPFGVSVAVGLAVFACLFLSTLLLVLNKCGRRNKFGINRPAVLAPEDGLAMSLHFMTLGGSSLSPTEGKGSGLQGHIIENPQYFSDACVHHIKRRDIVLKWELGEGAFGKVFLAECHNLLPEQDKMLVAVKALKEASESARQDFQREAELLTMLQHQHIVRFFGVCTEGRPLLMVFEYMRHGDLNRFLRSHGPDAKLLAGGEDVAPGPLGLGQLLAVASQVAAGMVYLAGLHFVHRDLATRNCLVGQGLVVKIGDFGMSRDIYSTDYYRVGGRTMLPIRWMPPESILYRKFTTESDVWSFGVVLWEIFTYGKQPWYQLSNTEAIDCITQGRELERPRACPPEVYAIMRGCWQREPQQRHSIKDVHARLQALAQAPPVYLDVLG

In the case of `CC[C@@H]1C(=O)N(C)c2cnc(Nc3ccc(C(=O)N[C@H]4CC[C@H](N5CCN(CC6CC6)CC5)CC4)cc3OC)nc2N1C(C)C` [VOLASERTIB], the Kd in [1], in [2], in assay [3], in [4], in [5] and in [6] was > 30 µM (inactive) throughout. The Kd in assay [7], in assay [8], in assay [9], in [10], in [11] and in assay [12] was > 30 µM (inactive) throughout.

In the case of `COc1cc(OC)c(/C=C/S(=O)(=O)Cc2ccc(OC)c(NCC(=O)O)c2)c(OC)c1` [RIGOSERTIB], the Kd was > 30 µM (inactive) in assay [1]; > 30 µM (inactive) in assay [2]; > 30 µM (inactive) in [3]; > 30 µM (inactive) in [4]; > 30 µM (inactive) in [5]; 0.94 µM (active) in [6]. In addition, the Kd in assay [13] was > 30 µM (inactive); in [14], > 30 µM (inactive); in assay [9] it was > 30 µM (inactive); in assay [10], > 30 µM (inactive); in [11], 0.04 µM.

For the molecule `CO[C@H]1C[C@@H]2CC[C@@H](C)[C@@](O)(O2)C(=O)C(=O)N2CCCC[C@H]2C(=O)O[C@H]([C@H](C)C[C@@H]2CC[C@@H](OCCO)[C@H](OC)C2)CC(=O)[C@H](C)/C=C(\C)[C@@H](O)[C@@H](OC)C(=O)[C@H](C)C[C@H](C)/C=C/C=C/C=C/1C` [EVEROLIMUS], the Kd in assay [1], in assay [2], in [3], in assay [4], in assay [5] and in assay [6] was > 30 µM (inactive) throughout. Also, the Kd in [13], in [7], in assay [8], in assay [9], in assay [11] and in assay [12] was > 30 µM (inactive) each time.

Turning to `O=C(Nc1ccc(-c2ccnc(Nc3ccc(N4CCOCC4)cc3)n2)cc1)C1CCCN1` (stereo unspecified) [XL-019], the Kd in assay [1], in assay [3], in [4], in assay [5], in [6] and in assay [13] was > 30 µM (inactive) each time. Moreover, the Kd in [7], in assay [8], in [9], in assay [10], in assay [11] and in assay [12] was > 30 µM (inactive) each time.

With `CNC(=O)CN1CCC(Oc2cc3c(Nc4cccc(Cl)c4F)ncnc3cc2OC)CC1` [SAPITINIB], the Kd was > 30 µM (inactive) in assay [1]; > 30 µM (inactive) in [2]; > 30 µM (inactive) in [3]; > 30 µM (inactive) in [4]; 0.015 µM in [5]; > 30 µM (inactive) in assay [6]. Also, the Kd in assay [13], in [14], in assay [8], in assay [9], in [10] and in [11] was > 30 µM (inactive) throughout.

On to `CNS(=O)(=O)Nc1nccc(Cc2c(C)c3ccc(Oc4ncccn4)cc3oc2=O)c1F` [AVUTOMETINIB], for which the Kd in [3], in assay [6], in [13], in assay [7], in [14] and in [10] was > 30 µM (inactive) each time. In assay [11], the Kd is > 30 µM (inactive).

`O=C(O)[C@]1(Cc2cccc(Nc3nccs3)n2)CC[C@@H](Oc2cccc(Cl)c2F)CC1` [MK-5108]: the Kd in [1], in assay [3], in [4], in [6], in assay [13] and in assay [14] was > 30 µM (inactive) throughout. Besides, the Kd in [9], in [10] and in assay [11] was > 30 µM (inactive) in each case.

For the molecule `O=C1NC(=O)/C(=C/c2ccc3nccc(-c4ccncc4)c3c2)S1` [GSK-1059615], the Kd in assay [2], in [3], in assay [4], in [5], in assay [6] and in assay [13] was > 30 µM (inactive) throughout. For the same molecule, the Kd in assay [9], in assay [10], in assay [11] and in assay [12] was > 30 µM (inactive) in each case.

With `Cc1c(F)cc(C(=O)NC2CC2)cc1-c1ccc(C(=O)NCC(C)(C)C)cn1` [LOSMAPIMOD], the Kd in [2] is > 30 µM (inactive); in assay [3] it was > 30 µM (inactive); in assay [4], > 30 µM (inactive); in assay [5], > 30 µM (inactive); in [14] it was > 30 µM (inactive); in assay [8], 1.69 µM. In addition, the Kd is > 30 µM (inactive) in [9], 0.011 µM in assay [10], > 30 µM (inactive) in assay [11] and > 30 µM (inactive) in [12].

With `CN1CCC(COc2cnc(-c3cccc(Cn4nc(-c5cccc(C#N)c5)ccc4=O)c3)nc2)CC1` [TEPOTINIB], the Kd in [2], in [3], in assay [4], in assay [5], in assay [7] and in assay [8] was > 30 µM (inactive) in each case. The Kd in [9], in assay [11] and in [12] was > 30 µM (inactive) throughout.

On to `CNC(=O)c1cc(Oc2ccc(NC(=O)Nc3ccc(Cl)c(C(F)(F)F)c3)c(F)c2)ccn1` [REGORAFENIB], for which the Kd was > 30 µM (inactive) in assay [1]; > 30 µM (inactive) in assay [2]; > 30 µM (inactive) in assay [3]; > 30 µM (inactive) in [4]; 0.007 µM in assay [5]; > 30 µM (inactive) in assay [6]. Also, the Kd in assay [7], in assay [14], in assay [8], in assay [10], in assay [11] and in [12] was > 30 µM (inactive) each time.
